Values quoted from earlier work, collected in patent US10968292B2, “Synthetic polymer film whose surface has microbicidal activity, photocurable resin composition, manufacturing method of synthetic polymer film, and sterilization method with use of surface of synthetic polymer film” (SHARP KABUSHIKI KAISHA, priority 2017, dated 2021).

Settings: for Water Solubility (solubility index): organic acids, water at about 20° C. to about 25° C.; for Water Solubility: monomers, YES/NO

| Molecule | Water Solubility (solubility index) | Water Solubility |
| --- | --- | --- |
| O=C(O)CCCCCCCCCCC(=O)O [Dodecanedioic Acid, dodecanedioic acid] | 7 (Practically insoluble • Not less than 10000 mL) |  |
| O=P(O)(O)Oc1ccccc1 [PPA, phenylphosphate] | 1 (Very soluble • Less than 1 mL) |  |
| O=C(O)CCCCCCC(=O)O [Suberic Acid, octanedioic acid] | 5 (Slightly soluble • Equal to or greater than 100 mL and less than 1000 mL) |  |
| Cc1cc(C)c(C(=O)O)c(C)c1 [TMBA, 2,4,6-trimethylbenzoic acid] | 6 (Very slightly soluble • Equal to or greater than 1000 mL and less than 10000 mL) |  |
| polyethylene glycol (200) diacrylate [Example M282] |  | YES |
| polyethylene glycol (400) diacrylate [Example M280] |  | YES |
